From patent publication US9012655B2, “Antimicrobial/adjuvant compounds and methods” (Denouamed, Inc., priority 2011, dated 2015)
Values after ≈ are worked out from the molar mass of the structure shown.

Legend:
Type in all cases: cell-based
Ps. aeruginosa = assay: Combination MICs for antibiotic adjuvant potential; settings: Pseudomonas aeruginosa, compound alone, read-out: standalone MIC
Description: Susceptibilities to the compounds were determined using the National Committee for Clinical Laboratory Standards (NCCLS) M7-A6 broth microdilution method. Cation-adjusted Mueller-Hinton broth (Ca^2+, 25 μg/mL; Mg^2+, 12.5 μg/mL) microdilution panels were prepared to contain antimicrobial doubling dilution concentrations of an appropriate range. DMSO (dimethylsulfoxide) controls were incorporated into the panel to mimic the quantity of DMSO used in dissolving some of the compounds at the higher concentrations. Each final panel well volume was 100 μL with a bacterial inoculum of 5×10^5 CFU (colony forming units)/mL of the relevant bacterium. Panels were read following 16 to 20 h of incubation at 35 degrees Celsius in ambient air. The MIC (minimum inhibitory concentration) was defined as the lowest concentration of antimicrobial inhibiting visible growth.
Generally following the procedure of Example 9, MICs of ampicillin, erythromycin, and azithromycin were determined against Ps. aeruginosa. Parallel to this effort, solutions were prepared which were identical. To each of these were added 0.5 μL of stock solution of a given compound of the present invention, then diluted to produce a final concentration of 125 μM, 60 μM, and/or 30 μM for determination of adjuvant activity. Compounds were determined to be antibiotic adjuvants if the mixture produced a lower MIC than that of the antibiotic agent alone.

Bacillus cereus NCTC6349 = assay: MIC panel of challenge pathogens (CLSI); settings: Bacillus cereus NCTC6349; for MIC: read-out: 100% inhibition; for MIC50: read-out: MIC50 (50%); for MIC80: read-out: MIC80 (80%)
How it was run: (§1)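 Broth microdilution per CLSI guidelines. Final inoculum 2-8×10^5 CFU/ml, compounds serially two-fold diluted from 128 mg/L top concentration. Incubated in the dark at 30-37° C for 24-48 h, aerobic or anaerobic as appropriate. MIC read visually as 100% inhibition endpoint; MIC50 and MIC80 also reported.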

[1] = system: Enterococcus faecalis ATCC51299; assay: MIC panel of challenge pathogens (CLSI); settings: Enterococcus faecalis ATCC51299; for MIC: read-out: 100% inhibition; for MIC50: read-out: MIC50 (50%); for MIC80: read-out: MIC80 (80%)
How it was run: as §1

[2] = system: Staphylococcus aureus ATCC43300; assay: MIC panel of challenge pathogens (CLSI); settings: Staphylococcus aureus ATCC43300; for MIC: read-out: 100% inhibition; for MIC50: read-out: MIC50 (50%); for MIC80: read-out: MIC80 (80%)
How it was run: as §1

[3] = system: Staphylococcus aureus AUR58 7005; assay: MIC panel of challenge pathogens (CLSI); settings: AUR587005, Staphylococcus aureus AUR58 7005; for MIC: read-out: 100% inhibition; for MIC50: read-out: MIC50 (50%); for MIC80: read-out: MIC80 (80%)
How it was run: as §1

[4] = system: Staphylococcus aureus AUR59 7005; assay: MIC panel of challenge pathogens (CLSI); settings: AUR597005, Staphylococcus aureus AUR59 7005; for MIC: read-out: 100% inhibition; for MIC50: read-out: MIC50 (50%); for MIC80: read-out: MIC80 (80%)
How it was run: as §1

[5] = system: Staphylococcus aureus EUP MRSA004; assay: MIC panel of challenge pathogens (CLSI); settings: EUPMRSA004, Staphylococcus aureus EUP MRSA004; for MIC: read-out: 100% inhibition; for MIC50: read-out: MIC50 (50%); for MIC80: read-out: MIC80 (80%)
How it was run: as §1

[6] = system: Staphylococcus aureus EUP SAU040; assay: MIC panel of challenge pathogens (CLSI); settings: EUPSAU040, Staphylococcus aureus EUP SAU040; for MIC: read-out: 100% inhibition; for MIC50: read-out: MIC50 (50%); for MIC80: read-out: MIC80 (80%)
How it was run: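 Broth microdilution per CLSI guidelines; final inoculum 2-8×10^5 CFU/ml in the appropriate broth. Compounds serially diluted two-fold from a top assay concentration of 128 mg/L. Plates incubated in the dark at 30-37° C for 24-48 hours, read visually; MIC taken as 100% inhibition endpoint.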

[7] = system: Staphylococcus aureus NRS2 (ATCC700698); assay: MIC panel of challenge pathogens (CLSI); settings: Staphylococcus aureus NRS2 (ATCC700698); for MIC: read-out: 100% inhibition; for MIC50: read-out: MIC50 (50%); for MIC80: read-out: MIC80 (80%)
How it was run: as §1

[8] = system: Staphylococcus aureus NRS382; assay: MIC panel of challenge pathogens (CLSI); settings: Staphylococcus aureus NRS382; for MIC: read-out: 100% inhibition; for MIC50: read-out: MIC50 (50%); for MIC80: read-out: MIC80 (80%)
How it was run: as §1

[9] = system: Staphylococcus aureus NRS384; assay: MIC panel of challenge pathogens (CLSI); settings: Staphylococcus aureus NRS384; for MIC: read-out: 100% inhibition; for MIC50: read-out: MIC50 (50%); for MIC80: read-out: MIC80 (80%)
How it was run: as §1

[10] = system: Staphylococcus epidermidis NRS122; assay: MIC panel of challenge pathogens (CLSI); settings: Staphylococcus epidermidis NRS122; for MIC: read-out: 100% inhibition; for MIC50: read-out: MIC50 (50%); for MIC80: read-out: MIC80 (80%)
How it was run: as §1

[11] = system: Staphylococcus aureus EUP MRSA002; assay: MIC panel of challenge pathogens (CLSI), EUP MRSA002; settings: EUPMRSA002, Staphylococcus aureus EUP MRSA002; for MIC: read-out: 100% inhibition; for MIC50: read-out: MIC50 (50%); for MIC80: read-out: MIC80 (80%)
Description: The inocula for each bacterial strain were prepared by picking 5-10 distinct colonies from the culture plates and suspending them in the appropriate broth as per Clinical and Laboratory Standards Institute (CLSI) guidelines M07-A8, M24-A or M11-A7 as appropriate. The inoculum was resuspended by vigorous shaking on a vortex mixer for 15 s. The turbidity was then adjusted to McFarland standard 0.5 ([…]). The inoculum was further diluted in the appropriate media for MIC tests to give a final inoculum in each well of 2-8×10^5 CFU/ml. MICs were tested in the appropriate broth in accordance with the appropriate CLSI guidelines.
A stock solution of each compound was prepared at a concentration of 1.28 g/L in DMSO. The stock was further diluted in the appropriate media to give a top starting concentration of 128 mg/L in the assay. 100 μL of the appropriate media, as per CLSI guidelines, was dispensed into each well in columns 2-12. 200 μL of the each compound solution (at 256 mg/L) was dispensed into each well in column 1. 100 μL aliquots were pipetted from column 1 wells and dispensed into column 2 with a multichannel pipette (±2% coefficient of variation) thus diluting two-fold. 100 μL samples were then pipetted from column 2 wells and dispensed into column 3. The process was repeated through to column 10. The final 100 μL of diluted drug from column 10 was then discarded. Row 11 acted as a positive control (no compound, but organisms added), Row 12 acted as a negative control (no compound, and no organisms added).
100 μL of the appropriate inoculum suspension in the appropriate media, as per CLSI guidelines, was added to the appropriate wells. […] All plates were incubated in the dark under aerobic or anaerobic conditions at 30-37° C. for 24-48 hours, according to the appropriate CLSI guideline. Plates were read visually 24-48 hours post inoculation. Endpoints of 100% inhibition were determined (CLSI interpretation endpoints following visual examination).
MIC50, MIC80, and 100% inhibition results are reported below in μg/mL in the following Tables, indicating each compound tested against a given species and strain: […]

With `Clc1ccc(-c2cc(-c3nnn[nH]3)sc2-c2ccc(Cl)cc2)cc1` [DNM0487, 5-(4,5-Bis(4-chlorophenyl)thiophen-2-yl)-1H-tetrazole] the MIC (Ps. aeruginosa) was > 2000 µM, the MIC (Bacillus cereus NCTC6349) was 0.5 µg/mL (≈ 1.34 µM) and the MIC50 (Bacillus cereus NCTC6349) was 0.5 µg/mL (≈ 1.34 µM). For the same compound, the MIC80 (Bacillus cereus NCTC6349) was 0.5 µg/mL (≈ 1.34 µM), the MIC [1] was 2 µg/mL (≈ 5.36 µM) and the MIC50 [1] was 1 µg/mL (≈ 2.68 µM). For the same compound, the MIC80 [1] was 2 µg/mL (≈ 5.36 µM), the MIC [2] was 1 µg/mL (≈ 2.68 µM) and the MIC50 [2] was 1 µg/mL (≈ 2.68 µM). The MIC80 [2] was 1 µg/mL (≈ 2.68 µM), the MIC [3] was 1 µg/mL (≈ 2.68 µM) and the MIC50 [3] was 1 µg/mL (≈ 2.68 µM). For the same compound, the MIC80 [3] was 1 µg/mL (≈ 2.68 µM), the MIC [4] was 1 µg/mL (≈ 2.68 µM) and the MIC50 [4] was 1 µg/mL (≈ 2.68 µM). For the same compound, the MIC80 [4] was 1 µg/mL (≈ 2.68 µM), the MIC [5] was 2 µg/mL (≈ 5.36 µM) and the MIC50 [5] was 1 µg/mL (≈ 2.68 µM). The MIC80 [5] was 2 µg/mL (≈ 5.36 µM), the MIC [6] was 2 µg/mL (≈ 5.36 µM) and the MIC50 [6] was 1 µg/mL (≈ 2.68 µM). The MIC80 [6] was 1 µg/mL (≈ 2.68 µM), the MIC [7] was 2 µg/mL (≈ 5.36 µM) and the MIC50 [7] was 1 µg/mL (≈ 2.68 µM). It also gave an MIC80 [7] of 2 µg/mL (≈ 5.36 µM), an MIC [8] of 1 µg/mL (≈ 2.68 µM) and an MIC50 [8] of 1 µg/mL (≈ 2.68 µM). For the same compound, the MIC80 [8] was 1 µg/mL (≈ 2.68 µM), the MIC [9] was 1 µg/mL (≈ 2.68 µM) and the MIC50 [9] was 1 µg/mL (≈ 2.68 µM). The MIC80 [9] was 1 µg/mL (≈ 2.68 µM), the MIC [10] was 4 µg/mL (≈ 10.7 µM) and the MIC50 [10] was 4 µg/mL (≈ 10.7 µM). For the same compound, the MIC80 [10] was 4 µg/mL (≈ 10.7 µM), the MIC [11] was 1 µg/mL (≈ 2.68 µM) and the MIC50 [11] was 1 µg/mL (≈ 2.68 µM). For the same compound, the MIC80 [11] was 1 µg/mL (≈ 2.68 µM).

For `CC(C)c1cc(Cl)ccc1-c1cc(C(=O)O)sc1-c1ccc(Cl)cc1C(C)C` [DNM0566, 4,5-Bis(4-chloro-2-isopropylphenyl)thiophene-2-carboxylic acid], the MIC (Bacillus cereus NCTC6349) was ≤ 0.25 µg/mL, the MIC50 (Bacillus cereus NCTC6349) was ≤ 0.25 µg/mL and the MIC80 (Bacillus cereus NCTC6349) was ≤ 0.25 µg/mL. For the same compound, the MIC [1] was 0.5 µg/mL (≈ 1.15 µM), the MIC50 [1] was 0.5 µg/mL (≈ 1.15 µM) and the MIC80 [1] was 0.5 µg/mL (≈ 1.15 µM). For the same compound, the MIC [2] was ≤ 0.25 µg/mL, the MIC50 [2] was ≤ 0.25 µg/mL and the MIC80 [2] was ≤ 0.25 µg/mL. The MIC [3] was 1 µg/mL (≈ 2.31 µM), the MIC50 [3] was 1 µg/mL (≈ 2.31 µM) and the MIC80 [3] was 1 µg/mL (≈ 2.31 µM). It also gave an MIC [4] of 0.5 µg/mL (≈ 1.15 µM), an MIC50 [4] of 0.25 µg/mL (≈ 0.577 µM) and an MIC80 [4] of 0.25 µg/mL (≈ 0.577 µM). The MIC [5] was ≤ 0.25 µg/mL, the MIC50 [5] was ≤ 0.25 µg/mL and the MIC80 [5] was ≤ 0.25 µg/mL. It also gave an MIC [6] of 0.5 µg/mL (≈ 1.15 µM), an MIC50 [6] of 0.5 µg/mL (≈ 1.15 µM) and an MIC80 [6] of 0.5 µg/mL (≈ 1.15 µM). For the same compound, the MIC [7] was 0.5 µg/mL (≈ 1.15 µM), the MIC50 [7] was 0.25 µg/mL (≈ 0.577 µM) and the MIC80 [7] was 0.5 µg/mL (≈ 1.15 µM). For the same compound, the MIC [8] was 0.5 µg/mL (≈ 1.15 µM), the MIC50 [8] was 0.5 µg/mL (≈ 1.15 µM) and the MIC80 [8] was 0.5 µg/mL (≈ 1.15 µM). The MIC [9] was 0.5 µg/mL (≈ 1.15 µM), the MIC50 [9] was 0.5 µg/mL (≈ 1.15 µM) and the MIC80 [9] was 0.5 µg/mL (≈ 1.15 µM). It also gave an MIC [10] of 2 µg/mL (≈ 4.61 µM), an MIC50 [10] of 1 µg/mL (≈ 2.31 µM) and an MIC80 [10] of 2 µg/mL (≈ 4.61 µM). The MIC [11] was ≤ 0.25 µg/mL, the MIC50 [11] was ≤ 0.25 µg/mL and the MIC80 [11] was ≤ 0.25 µg/mL.
